Results published in patent publication US20230258569A1, “REAGENT FOR MEASURING SKIN SENSITIZATION, COMPOUND, AND METHOD FOR MEASURING SKIN SENSITIZATION” (FUJIFILM Corporation, priority 2020, published 2023).
Structures can show the parent of a compound that is named as a salt.

How the values were obtained:
[1] = Reactivity (% depletion) of nucleophilic reagent Compound 1 with test substance, HPLC; skin sensitization prediction; conditions: for reactivity of Compound 1 in comparison with NAC and NAL in ADRA / reactivity of Compound 1 in comparison with NAC-amide / reactivity of Compound 1 in comparison with the cysteine peptide and the lysine peptide in DPRA / reactivity of Compound 1 in comparison with GSH-NBD: FIG. 3, FIG. 4; for reactivity of Compound 1 with the substance: in words
[2] = DPRA (direct peptide reactivity assay); conditions: in words
From the text: For example, [Gerberick, G. F., Vassallo, J. D., Bailey, R. E., Chaney, J. G., Morrall, S. W., and Lepoittevin, J. P. (2004). Development of a peptide reactivity assay for screening contact allergens. Toxicological Sciences, 81 (2), pp. 332-343] and [Gerberick, G. F., Vassallo, J. D., Foertsch, L. M., Price, B. B., Chaney, J. G., and Lepoittevin, J. P. (2007). Quantification of chemical peptide reactivity for screening contact allergens: a classification tree model approach. Toxicological Sciences, 97 (2), pp. 417-427] describe a method using two types of peptides (a cysteine peptide and a lysine peptide) as nucleophilic reagents. In addition, JP2011-59102A and JP2014-37995A describe a reagent for measuring skin sensitization and a method for measuring skin sensitization, using a cysteine derivative into which an aryl ring has been introduced and a lysine derivative into which an aryl ring has been introduced as nucleophilic reagents (also referred to as ADRA).
Natsch A. and Gfeller H. (2008). […] Quantification of chemical peptide reactivity for screening contact allergens: a classification tree model approach. […]
One type of nucleophilic reagent (Compound 1) was evaluated. In addition, the following compounds were also evaluated in the same manner as controls for comparison of the reactivity to the fifteen types of evaluation substances. • Cys peptide • Lys peptide

[3] = prediction results published in the literature; cited from earlier work
[4] = prediction results published in the literature; cited from earlier work; remark: listed apart in the source
[5] = in vivo; cited from earlier work
[6] = Stability of nucleophilic reagent (residual ratio, HPLC-UV); format: physicochemical
Experimental: Immediately after preparation of the reaction solution (0 hours) and after incubation of the reaction solution at 25° C. for 24 hours (24 hours), the reaction solution is measured by HPLC-UV. At this time, since the nucleophilic reagent and the oxidized form and modified form of the nucleophilic reagent can be confirmed on HPLC, the residual ratio of the nucleophilic reagent is calculated based on the following equation.
Residual ratio (%) of nucleophilic reagent=area value of nucleophilic reagent/(area value of nucleophilic reagent+area value of oxidized form of nucleophilic reagent+area value of modified form of nucleophilic reagent)×100

| residual ratio of nucleophilic reagent ([6]; after 24 hours, 25° C.) [%] | residual ratio of nucleophilic reagent ([6]; immediately after solution preparation (0 hours)) [%] | SMILES | reactivity of Compound 1 in comparison with NAC and NAL in ADRA [1] | reactivity of Compound 1 in comparison with NAC-amide [1] | reactivity of Compound 1 with the substance [1] | reactivity with the cysteine peptide in DPRA [2] | ADRA prediction [3] | reactivity of Compound 1 in comparison with the cysteine peptide and the lysine peptide in DPRA [1] | DPRA prediction [4] | Category of LLNA sensitization [5] | reactivity of Compound 1 in comparison with GSH-NBD [1] | depletion of Compound 1 ([1]; pH 7.4) [%] | depletion of Compound 1 ([1]; pH 8.0) [%] |
| --- | --- | --- | --- | --- | --- | --- | --- | --- | --- | --- | --- | --- | --- |
|  |  | CCCCBr [1-Bromobutane] | same level of reactivity | same level of reactivity | no reactivity | reactive | Negative |  |  |  |  |  |  |
|  |  | CCC=C1OC(=O)c2ccccc21 [3-Propylidene phthalide] | same level of reactivity | same level of reactivity |  |  |  | lower reactivity | Positive | Moderate |  |  |  |
|  |  | COc1ccc(C(C)=O)cc1 [4′-Methoxyacetophenone] | same level of reactivity | same level of reactivity |  |  | Negative | same level of reactivity | Negative | None |  |  |  |
|  |  | CCCCCCI [Compound 1-Iodohexane, 1-Iodohexane] | same level of reactivity | same level of reactivity | no reactivity | reactive | Negative |  |  | None |  |  |  |
| ≥ 85 | ≥ 90 | NNC(=O)[C@H](CS)NC(=O)Cc1cccc2ccccc12 [Compound 1] |  |  |  |  |  |  |  |  |  |  |  |
|  |  | CC(C=O)Cc1ccc(C(C)C)cc1 (centres unmarked) [Cyclamen aldehyde] | higher reactivity | higher reactivity |  |  |  | higher reactivity | Positive | Weak | higher reactivity |  |  |
|  |  | CCOS(=O)(=O)OCC [Diethyl sulfate] |  |  |  |  |  |  | Positive |  |  |  |  |
|  |  | O=c1c(-c2ccccc2)c1-c1ccccc1 [Diphenylcyclopropenone] | higher reactivity | same level of reactivity |  |  | Positive | same level of reactivity | Positive |  |  |  |  |
|  |  | CCOC(=O)CC(=O)c1ccccc1 [Ethyl benzoylacetate] | same level of reactivity | same level of reactivity |  |  | Negative | same level of reactivity | Negative | None |  |  |  |
|  |  | COC(=O)C(C)=O [Methyl pyruvate] | higher reactivity | higher reactivity |  |  |  | higher reactivity |  | Moderate | higher reactivity |  |  |
|  |  | CCCCCCCCC(=O)Cl [Nonanoyl chloride] | higher reactivity | same level of reactivity |  |  | Positive | higher reactivity |  | Moderate | GSH-NBD showed higher reactivity |  |  |
|  |  | O=C(Oc1ccccc1)c1ccccc1 [Phenyl benzoate] | higher reactivity | same level of reactivity |  |  |  | lower reactivity | Positive | Weak |  |  |  |
|  |  | O=C(O)c1ccc2c(c1)C(=O)OC2=O [Trimellitic anhydride] | NAL showed higher reactivity than Compound 1 | higher reactivity |  |  | Positive | same level of reactivity | Positive | Strong | GSH-NBD showed higher reactivity | 41.0 | 37.2 |
|  |  | O=c1cccccc1O [Tropolone] | higher reactivity | same level of reactivity |  |  |  | lower reactivity | Positive | Moderate |  |  |  |
|  |  | CCCCCC(C=O)=Cc1ccccc1 [α-Pentyl cinnamaldehyde] | higher reactivity | higher reactivity |  |  |  | higher reactivity |  | Weak | higher reactivity |  |  |
